Data published in publication PMC8120183, “Cardamonin inhibits the progression of oesophageal cancer by inhibiting the PI3K/AKT signalling pathway” (Journal of Cancer, 2021).
Peptide text beside a SMILES is read from it. * marks the point of attachment. Cbz = O=C(OCc1ccccc1)*; CH2F = FC*

Key:
[1] = tested on: EC9706 cells; assay: Annexin V-FITC/PI flow cytometry, apoptosis; format: cell-based, human; details: co-incubation with CAR
Experimental: After the oesophageal cancer cells were treated with different concentrations of CAR for 48 h, the cells were digested with trypsin, washed twice with PBS, and resuspended in 1× loading buffer. The cells were double-stained with 5 µL of annexin V-FITC and 5 μL of PI and then incubated in the dark for 30 min before flow cytometry analysis.

[2] = tested on: PI3K/AKT signalling pathway in EC9706 cells; assay: Western blot, PI3K/AKT signalling pathway; format: cell-based, human
Experimental: (§1) Oesophageal cancer cells were inoculated into a 6-well plate (5×10^5 cells/well). Cells were treated with different concentrations of CAR and then incubated for an additional 48 h. The cells were lysed using radio-immunoprecipitation assay (RIPA) buffer. The protein concentration was determined using a BCA kit. Proteins were separated by 8-12% sodium dodecyl sulfate-polyacrylamide gel electrophoresis (SDS-PAGE) and then transferred to a polyvinylidene fluoride (PVDF) membrane. The membrane was blocked with 5% nonfat milk for 1 h and then incubated with primary antibodies at 4 °C overnight. The membrane was then incubated with secondary antibodies for 1 h at room temperature. Finally, the membrane was imaged using a chemiluminescence imaging analyser. The greyscale value of each target protein band was analysed using the software provided with the analyser.

[3] = tested on: EC9706 and TE10 cells; assay: Transwell migration assay; format: cell-based, human
Experimental: (§2) A total of 100 μL of Matrigel was placed in the upper chamber of a Transwell system and incubated at 37 °C for 2 h to form a white membrane visible to the naked eye. Cells were resuspended in serum-free medium and adjusted to a concentration of 3×10^4 cells/well. Medium containing 10% FBS was added into the lower chamber, and CAR was added based on a concentration gradient. Next, the cells were incubated for 48 h and then stained with crystal violet for 10 min. Then, an inverted microscope was used to observe the cells; five fields were randomly selected to observe and count the cells. To assess cell migration, all the above steps were repeated, but Matrigel was not added to the upper chamber.

[4] = tested on: EC9706 and TE10 oesophageal cancer cells; assay: Hoechst 33258 staining, apoptosis; format: cell-based, human
Experimental: Cells were seeded into 24-well plates (3×10^4 cells/well). The cells were treated with different concentrations of CAR and then incubated for 48 h, followed by fixation with 4% paraformaldehyde for 30 min and one wash with PBS. The cells were stained with Hoechst 33258 (50 ng/ml) for 30 min. Apoptotic cells were observed using a fluorescence microscope (apoptotic cells were characterized by dense chromatin), and five randomly selected fields were used for cell counting.

[5] = tested on: oesophageal cancer cell lines EC9706 and TE10; assay: Colony formation assay; format: cell-based, human
Experimental: Oesophageal cancer cells were inoculated into 6-well plates at a density of 8×10^2 cells/well and treated with different concentrations of CAR. The cells were continuously cultured for two weeks until colonies visible to the naked eye had formed. Then, the supernatant was discarded, and crystal violet staining solution was added for 10 min. The cells were dried and photographed, and the colony formation rate was calculated.

[6] = tested on: human normal oesophageal cells (HET-1A); assay: MTT assay, IC50 in normal cells; format: cell-based; details: 24 h and 48 h
Experimental: (§3) EC9706 and TE10 oesophageal cancer cells in the logarithmic growth phase were harvested and inoculated into 96-well plates at a density of 3000 cells/well. The cells were cultured in an incubator for 12 h and then treated with different concentrations of CAR and DMSO. The NC group was also set up. After incubation for 24 h or 48 h, 10 µL of MTT solution (5 mg/ml) was added to each well. The supernatant was aspirated, and 100 µL of DMSO was added to each well. The absorbance at a wavelength of 490 nm was measured using a microplate reader.
(§4) Supplementary Figure 1 (A -D) EC9706 and TE10 cells were treated with different concentrations of CAR or DMSO, and cell viability and the IC50 at 24 h and 48 h were examined by MTT assay. (E-H) HET-1A and GES-1 cells were treated with different […]
(§5) examined by MTT assay. (I-J) EC9706 cells were incubated with CAR or the caspase inhibitor Z-VAD- FMK or co-incubated, and mitochondrial apoptosis pathway- related proteins were detected by Western blot. […]
(§6) reverse the expression of Bcl2, Bax, Bad, caspase- 3, and cleaved caspase- 3. (K and L) The apoptosis of EC9706 cells after applying the caspase inhibitor Z-VAD- FMK was detected by […]
(§7) (1 picture or pasted object on this page, not shown here)

[7] = HE staining of important organs; format: in vivo, nude mice; details: treatment group vs control group
Experimental: (§8) A suspension of EC9706 cells (2×10^7 cells/ml) was injected into the middle of and posterior to the armpit of 4- to 6-week-old male nude mice. One week after inoculation, a soybean-sized subcutaneous mass appeared in the armpits of the mice. Then, different doses of CAR (5, 15, or 25 mg/kg) or sodium carboxymethyl cellulose (CMC), which served as a control, were administered by gavage once every three days. The body weights of the mice and tumour size were measured at the same time. Mice were euthanized 26 days after drug administration. Immunohistochemistry (IHC) was used to stain the tumours, and stomach tissue was stained with haematoxylin-eosin (HE).
Tumour tissues were fixed with 4% paraformaldehyde and embedded in paraffin. Paraffin-embedded tissue blocks were cut into slices with a thickness of […]. Tumour sections were immunohistochemically stained with PCNA (1:100), Bcl-2 (1:100), vimentin (1:100), phosphorylated Akt (1:100), and phosphorylated PI3K (1:100) antibodies according to the steps of the immunohistochemistry kit. For HE staining, tissues were sectioned after deparaffinization, stained with haematoxylin and eosin, and mounted on slides with neutral gum.

[8] = tested on: E-cadherin, N-cadherin, vimentin, Snail, MMP2, MMP7, MMP9 in EC9706 cells; assay: Western blot, EMT-related marker proteins and MMPs; format: cell-based, human
Experimental: as §1

[9] = Body weight of xenograft mice; format: in vivo, nude mice; details: 5, 15 or 25 mg/kg by gavage, compared with control group
Experimental: as §8

[10] = tested on: EC9706 and TE10 cells; assay: Transwell Matrigel invasion assay; format: cell-based, human; details: 48 h
Experimental: as §2

[11] = tested on: PCNA, p-PI3K, p-AKT, Bcl2, vimentin; assay: Immunohistochemistry of xenograft tumour tissue; format: in vivo, nude mice; details: with increasing CAR concentrations
Experimental: A suspension of EC9706 cells (2×10^7 cells/ml) was injected into the middle of and posterior to the armpit of 4- to 6-week-old male nude mice. One week after inoculation, a soybean-sized subcutaneous mass appeared in the armpits of the mice. Then, different doses of CAR (5, 15, or 25 mg/kg) or sodium carboxymethyl cellulose (CMC), which served as a control, were administered by gavage once every three days. The body weights of the mice and tumour size were measured at the same time. Mice were euthanized 26 days after drug administration. Immunohistochemistry (IHC) was used to stain the tumours, and stomach tissue was stained with haematoxylin-eosin (HE). Tumour tissues were fixed with 4% paraformaldehyde and embedded in paraffin. Paraffin-embedded tissue blocks were cut into slices with a thickness of 3-5 mm. Tumour sections were immunohistochemically stained with PCNA (1:100), Bcl-2 (1:100), vimentin (1:100), phosphorylated Akt (1:100), and phosphorylated PI3K (1:100) antibodies according to the steps of the immunohistochemistry kit. For HE staining, tissues were sectioned after deparaffinization, stained with haematoxylin and eosin, and mounted on slides with neutral gum.

[12] = tested on: normal gastric epithelial cells (GES-1); assay: MTT assay, IC50 in normal cells; format: cell-based, human; details: GES-1, 24 h and 48 h
Experimental: as §3, §4, §5, §6, §7

[13] = tested on: Bad, Bax, Bcl-2, PARP, caspase-3 in EC9706 cells; assay: Western blot, apoptosis-related proteins; format: cell-based, human; details: 48 h
Experimental: as §1

[14] = tested on: EC9706 xenograft; assay: EC9706 tumour xenograft model, tumour growth; format: in vivo, nude mice; details: 5, 15 or 25 mg/kg by gavage once every three days, compared with control group
Experimental: as §8

[15] = Serum ALT, AST and CR levels; format: in vivo, nude mice; details: mean±SD (n=3)
Experimental: as §8

[16] = Blood routine related indexes; format: in vivo, nude mice; details: Mean±SD (n=3)
Experimental: as §8

[17] = tested on: EC9706 cells; assay: MTT assay, cell viability and IC50; format: cell-based, human
Experimental: as §3

[18] = tested on: TE10 cells; assay: MTT assay, cell viability and IC50; format: cell-based, human
Experimental: as §3

[19] = tested on: EC9706 and TE10 oesophageal cancer cells; assay: Wound healing assay; format: cell-based, human; details: within 24 h
Experimental: Oesophageal cancer cells were seeded into 6-well plates (5×10^5 cells/well) and then linearly scratched with a 10-μL pipette tip. After treatment for 24 h with different concentrations of CAR, cell migration was observed using an inverted microscope.

[20] = tested on: PCNA in EC9706 cells; assay: Western blot, proliferation marker; format: cell-based, human; details: 48 h
Experimental: as §1

[21] = tested on: oesophageal cancer cell lines EC9706 and TE10; assay: Crystal violet staining, cell proliferation; format: cell-based, human; details: 4, 6, 8, 10 µM; 24 h and 48 h; similar in MTT assay
Experimental: Oesophageal cancer cells at a density of 3×10^4 cells/well were seeded in 24-well plates. Then, the cells were treated with different concentrations of prepared CAR or DMSO, and the NC group was set up. After incubation in an incubator for 24 h and 48 h, crystal violet staining solution was added to each well. After imaging under a scanner, the cells were fully dissolved in 20% acetic acid solution. To calculate cell viability, the optical density (OD) value of each well was measured at 590 nm using an enzyme-linked immunosorbent assay (ELISA) spectrophotometer.

[22] = 48 h, compared with control group
[23] = 5 mg/kg by gavage once every three days
[24] = 15 mg/kg by gavage once every three days
[25] = 25 mg/kg by gavage once every three days

## COC(=O)C[C@H](NC(=O)[C@H](C)NC(=O)[C@@H](NC(=O)OCc1ccccc1)C(C)C)C(=O)CF [Z-VAD-FMK] (Cbz-Val-Ala-Asp(OMe)-CH2F)
[1]
  effect of caspase inhibitor pretreatment on CAR-induced apoptosis: could reverse the apoptosis induced by CAR

## 740Y-P [reference compound]
[2]; co-incubation with CAR
  effect of PI3K agonist on CAR inhibition of PI3K/AKT: eliminated the inhibitory effect of CAR on PI3K/AKT in oesophageal cancer cells
[3]; scratch healing, Transwell migration and invasion assays, co-incubation with CAR
  effect of PI3K agonist on anti-migration and anti-invasion effects of CAR: can partially reverse the anti-migration and anti-invasion effects of CAR on oesophageal cancer cells
[4]; Hoechst 33258 staining and flow cytometry, co-incubation with CAR
  effect of PI3K agonist on apoptosis-promoting effect of CAR: could partially reverse the apoptosis-promoting effect of CAR on EC9706 and TE10 cells
[5]; MTT and colony formation assays, co-incubation with CAR
  effect of PI3K agonist on antiproliferation effect of CAR: could partially reverse the antiproliferation effect of CAR

## COc1cc(O)cc(O)c1C(=O)/C=C/c1ccccc1 [CAR, Cardamonin]
[6]
  IC50 in normal cells compared with oesophageal cancer cells: higher IC50 values
[7]
  HE staining of important organs: no difference in HE staining was observed between the treatment group and the control group
[8]
  E-cadherin expression: upregulated the expression of E-cadherin
  MMP2, MMP7 and MMP9 expression: significantly reduced the expression of MMP2, MMP7, and MMP9
  N-cadherin, vimentin and Snail expression: significantly downregulated the expression of N-cadherin and vimentin as well as the EMT transcription factor Snail
[9]
  weight of mice: did not significantly change
[10]
  invasive ability: significantly inhibited the invasive ability of oesophageal cancer cells
[11]
  expression of PCNA, p-PI3K, p-AKT, Bcl2 and vimentin in tumour: the expression levels of PCNA, p-PI3K, p-AKT, Bcl2, and vimentin were downregulated
[2]; EC9706 cells, with increasing CAR concentrations
  protein levels of p-PI3K and p-AKT: decreased significantly
[12]
  IC50 in normal cells compared with oesophageal cancer cells: higher IC50 values
[13]
  expression of anti-apoptosis-related proteins: downregulated the expression level of the anti-apoptosis-related proteins Bcl-2, PARP, and caspase-3
  expression of pro-apoptosis-related proteins: upregulated the expression levels of the pro-apoptosis-related proteins Bad, Bax, cleaved PARP, and cleaved caspase-3
[3]; [22]
  cell migration: significantly inhibited oesophageal cancer cell migration
[14]
  tumour growth: significantly inhibited tumour growth
[4]; [22]
  number of apoptotic cells: gradually increased with increasing drug concentrations
[15]; [23]
  ALT: 25.97±1.19 U/L
  AST: 57.56±2.19 U/L
  CR: 51.41 ± 4.33 µmol/L
[15]; [24]
  ALT: 23.50±2.88 U/L
  AST: 55.38±3.26 U/L
  CR: 49.61 ± 6.54 µmol/L
[15]; [25]
  ALT: 21.04±2.52 U/L
  AST: 57.20±4.16 U/L
  CR: 53.34 ± 7.72 µmol/L
[16]; [23]
  Gran: 25.43±2.58%
  HCT: 39.87±7.80%
  HGB: 131.33 ± 6.51 g/L
  LYM: 70.80±4.07%
  MCH: 20.07 ± 0.93 pg
  MCHC: 348.00 ± 12.77 g/L
  MCV: 57.63 ± 1.50 fL
  Mon: 3.77±1.95%
  PLT: 1009±44.24 ×10^9/L
  RBC: 6.91±1.49 ×10^12/L
  WBC: 3.90±0.17 ×10^9/L
[16]; [24]
  Gran: 24.53±2.28%
  HCT: 35.77±1.86%
  HGB: 137.00 ± 19.00 g/L
  LYM: 72.30±3.15%
  MCH: 19.40 ± 2.07 pg
  MCHC: 332.33 ± 19.09 g/L
  MCV: 58.33 ± 2.78 fL
  Mon: 3.17±1.01%
  PLT: 1074.00±42.80 ×10^9/L
  RBC: 6.13±0.08 ×10^12/L
  WBC: 3.82±0.07 ×10^9/L
[16]; [25]
  Gran: 23.53±2.25%
  HCT: 34.30±2.17%
  HGB: 142.33 ± 5.69 g/L
  LYM: 74.13±1.53%
  MCH: 17.93 ± 0.49 pg
  MCHC: 336.00 ± 7.00 g/L
  MCV: 56.03 ± 1.56 fL
  Mon: 3.20±0.87%
  PLT: 1077.00±42.58 ×10^9/L
  RBC: 6.42±0.19 ×10^12/L
  WBC: 3.80±0.14 ×10^9/L
[17]; 24 h
  IC50: 12.2 µM
[17]; 48 h
  IC50: 8.67 µM
[18]; 24 h
  IC50: 12.5 µM
[18]; 48 h
  IC50: 8.4 µM
[19]
  healing rate: gradually decreased with increases in the CAR concentration
[5]; two weeks culture
  colony formation: significant inhibitory effect on the colony formation of oesophageal cancer cells in a concentration-dependent manner
[20]
  PCNA expression: significantly inhibited PCNA expression
[21]
  cell proliferation: inhibited oesophageal cancer cell proliferation in time- and concentration-dependent manners
